Test results: patent US20250122166A1, “SUBSTITUTED N-((2-(2,6-DIOXOPIPERIDIN-3-YL)-1-OXOISOINDOLIN-4-YL)METHYL)BENZAMIDE ANALOGS AS MODULATORS OF CEREBLON PROTEIN” (ST. JUDE CHILDREN'S RESEARCH HOSPITAL, INC., priority 2021, published 2025)

Key:
[1] = biological target: 6XHis-CRBN-DDB1 protein (Homo sapiens (Human), UniProt Q96SW2); test: CRBN fluorescence polarization assay (competitive, Cy5-O-Len probe); type: binding; conditions: 6XHis-CRBN-DDB1 200 nM, Cy5-O-Len probe 30 nM, 1 hour; mean of three determinations; read-out: CRBN FP (IC50)
Description: In this competitive fluorescent polarization assay Cy5 conjugated lenalidomide analog (Cy5—O-Len)^1 was used as a fluorescent probe. 6XHis-CRBN-DDB1 protein (200 nM) and Cy5—O-Len probe (30 nM) were combined in 20 mM HEPES pH 7, 150 mM NaCl, 0.005% Tween-20 assay buffer. 20 μL of this assay cocktail was dispensed into wells of Corning 3821 black 384-well plates. Compounds were transferred to the assay plate from a dose-response plate using a Pintool on a Biomek FXP Laboratory Automation Workstation (Beckman Coulter). The plates were incubated in the dark for 1 hour at room temperature and then read on an Envision plate reader (PerkinElmer, Massachusetts, USA). IC50 values were determined using a proprietary software RISE (Robust Investigation of Screening Experiments), developed in house on the Pipeline Pilot platform (Biovia, v. 17.2.0). Data represent the mean of three independent determinations.

[2] = tested on: MOLM-13 cells; test: Cell proliferation assay (Cell Titer-Glo, 72 h); type: cell-based; conditions: Homo sapiens, 72 h incubation, * = cytostatic 50%
Description: MOLM-13 cell line was purchased from the Leibniz Institute DSMZ (ACC 554). The cells were cultured according to recommendations in RPMI 1640 cell culture media with 20% FBS (DSMZ). Exponentially growing MOLM-13 cells were plated at 1250 cells per well in Corning 8804BC white 384-well assay plates and incubated overnight at 37° C. in a humidified 5% CO2 incubator. Compounds were transferred to the assay plate from a dose-response plate using a Pintool on a Biomek FXP Laboratory Automation Workstation (Beckman Coulter). Cytotoxicity was determined following 72 hours of incubation using Promega Cell Titer Glo reagent according to the manufacturer's recommendation. Luminescence was measured on an Envision plate reader (Perkin-Elmer).
Compounds were screened in human cancer cell lines and each cell line was cultured in the complete medium recommended by the vendor and seeded in Corning 8804BC white 384-well assay plates at density of 1250 cells per well for MOLM-13 cells. After overnight incubation at 37° C. in a humidified 5% CO2 incubator, cells were treated with compounds in dose-response format using a Pintool on a Biomek FXP Laboratory Automation Workstation (Beckman Coulter). After 72h incubation, cell proliferation was assessed using Cell Titer-Glo (CTG) luminescent cell viability assay (Promega) according to the manufacturer's instruction. Luminescence signal was measured using an Envision plate reader (Perkin-Elmer).

Structure (SMILES)	IC50 [1] [nM]	EC50 [2] [nM]
O=C(Cc1ccccc1Br)NCc1cccc2c1CN(C1CCC(=O)NC1=O)C2=O (centres unmarked) [Compound 41, 2-(2-bromophenyl)-N-((2-(2,6-dioxopiperidin-3-yl)-1-oxoisoindolin-4-yl)methyl)acetamide]	1000 to 10000	> 10000
N#Cc1cccc(C(=O)NCc2cccc3c2CN(C2CCC(=O)NC2=O)C3=O)c1 (centres unmarked) [Compound 26, 3-cyano-N-((2-(2,6-dioxopiperidin-3-yl)-1-oxoisoindolin-4-yl)methyl)benzamide]	< 1000	< 1000
O=C1CCC(N2Cc3c(CNC(=O)c4ccc(F)cc4Cl)cccc3C2=O)C(=O)N1 (centres unmarked) [Compound 17, 2-chloro-N-((2-(2,6-dioxopiperidin-3-yl)-1-oxoisoindolin-4-yl)methyl)-4-fluorobenzamide]	1000 to 10000	< 1000
O=C1CCC(N2Cc3c(CNC(=O)c4ccncc4)cccc3C2=O)C(=O)N1 (centres unmarked) [Compound 6, N-((2-(2,6-dioxopiperidin-3-yl)-1-oxoisoindolin-4-yl)methyl)isonicotinamide]		> 10000
O=C1CCC(N2Cc3c(CNC(=O)c4ccc(OC(F)(F)F)cc4)cccc3C2=O)C(=O)N1 (centres unmarked) [Compound 34, N-((2-(2,6-dioxopiperidin-3-yl)-1-oxoisoindolin-4-yl)methyl)-4-(trifluoromethoxy)benzamide]	1000 to 10000	< 1000
O=C1CCC(N2Cc3c(CNC(=O)c4ccccc4Nc4cccc(C(F)(F)F)c4)cccc3C2=O)C(=O)N1 (centres unmarked) [Compound 43, N-((2-(2,6-dioxopiperidin-3-yl)-1-oxoisoindolin-4-yl)methyl)-2-((3-(trifluoromethyl)phenyl)amino)benzamide]	1000 to 10000	< 1000
O=C1CCC(N2Cc3c(CNC(=O)c4ccccc4F)cccc3C2=O)C(=O)N1 (centres unmarked) [Compound 31, N-((2-(2,6-dioxopiperidin-3-yl)-1-oxoisoindolin-4-yl)methyl)-2-fluorobenzamide]	1000 to 10000	> 10000
O=C1CCC(N2Cc3c(CNC(=O)c4cccc(F)c4)cccc3C2=O)C(=O)N1 (centres unmarked) [Compound 9, N-((2-(2,6-dioxopiperidin-3-yl)-1-oxoisoindolin-4-yl)methyl)-3-fluorobenzamide]	1000 to 10000	< 1000
O=C1CCC(N2Cc3c(CNC(=O)c4ccc(Cl)cc4)cccc3C2=O)C(=O)N1 (centres unmarked) [Compound 5, 4-chloro-N-((2-(2,6-dioxopiperidin-3-yl)-1-oxoisoindolin-4-yl)methyl)benzamide]	1000 to 10000	< 1000
O=C1CCC(N2Cc3c(CNC(=O)c4cccc(C(F)(F)F)c4)cccc3C2=O)C(=O)N1 (centres unmarked) [Compound 12, N-((2-(2,6-dioxopiperidin-3-yl)-1-oxoisoindolin-4-yl)methyl)-3-(trifluoromethyl)benzamide]	1000 to 10000	< 1000
O=C1CCC(N2Cc3c(CNC(=O)c4ccc(Cl)c(F)c4)cccc3C2=O)C(=O)N1 (centres unmarked) [Compound 19, 4-chloro-N-((2-(2,6-dioxopiperidin-3-yl)-1-oxoisoindolin-4-yl)methyl)-3-fluorobenzamide]	1000 to 10000	< 1000
O=C1CCC(N2Cc3c(CNC(=O)c4ccccc4Cl)cccc3C2=O)C(=O)N1 (centres unmarked) [Compound 46, 2-chloro-N-((2-(2,6-dioxopiperidin-3-yl)-1-oxoisoindolin-4-yl)methyl)benzamide]	1000 to 10000	< 1000
O=C1CCC(N2Cc3c(CNC(=O)c4cccc(C(F)F)c4)cccc3C2=O)C(=O)N1 (centres unmarked) [Compound 23, 3-(difluoromethyl)-N-((2-(2,6-dioxopiperidin-3-yl)-1-oxoisoindolin-4-yl)methyl)benzamide]	1000 to 10000	< 1000
COc1ccc(C(=O)NCc2cccc3c2CN(C2CCC(=O)NC2=O)C3=O)cc1 (centres unmarked) [Compound 25, N-((2-(2,6-dioxopiperidin-3-yl)-1-oxoisoindolin-4-yl)methyl)-4-methoxybenzamide]	> 10000	> 10000
COc1ccccc1C(=O)NCc1cccc2c1CN(C1CCC(=O)NC1=O)C2=O (centres unmarked) [Compound 29, N-((2-(2,6-dioxopiperidin-3-yl)-1-oxoisoindolin-4-yl)methyl)-2-methoxybenzamide]	1000 to 10000	< 1000
O=C1CCC(N2Cc3c(CNC(=O)c4ccccc4Nc4ccccc4)cccc3C2=O)C(=O)N1 (centres unmarked) [Compound 45, N-((2-(2,6-dioxopiperidin-3-yl)-1-oxoisoindolin-4-yl)methyl)-2-(phenylamino)benzamide]	1000 to 10000	< 1000

Structure (SMILES)	IC50 [1] [nM]	EC50 [2] [nM]
O=C1CCC(N2Cc3c(CNC(=O)c4cccc(Cl)c4)cccc3C2=O)C(=O)N1 (centres unmarked) [Compound 3, 3-chloro-N-((2-(2,6-dioxopiperidin-3-yl)-1-oxoisoindolin-4-yl)methyl)benzamide]	< 1000	< 1000
O=C1CCC(N2Cc3c(CNC(=O)c4ccc(F)cc4)cccc3C2=O)C(=O)N1 (centres unmarked) [Compound 7, N-((2-(2,6-dioxopiperidin-3-yl)-1-oxoisoindolin-4-yl)methyl)-4-fluorobenzamide]	1000 to 10000	< 1000
CCCc1ccc(C(=O)NCc2cccc3c2CN(C2CCC(=O)NC2=O)C3=O)cc1 (centres unmarked) [Compound 30, N-((2-(2,6-dioxopiperidin-3-yl)-1-oxoisoindolin-4-yl)methyl)-4-propylbenzamide]	< 1000	< 1000
Cc1ccc(F)cc1C(=O)NCc1cccc2c1CN(C1CCC(=O)NC1=O)C2=O (centres unmarked) [Compound 32, N-((2-(2,6-dioxopiperidin-3-yl)-1-oxoisoindolin-4-yl)methyl)-5-fluoro-2-methylbenzamide]	1000 to 10000	> 10000
O=C1CCC(N2Cc3c(CNC(=O)c4c(F)ccc(F)c4Cl)cccc3C2=O)C(=O)N1 (centres unmarked) [Compound 33, 2-chloro-N-((2-(2,6-dioxopiperidin-3-yl)-1-oxoisoindolin-4-yl)methyl)-3,6-difluorobenzamide]	< 1000	> 10000
O=C1CCC(N2Cc3c(CNC(=O)c4ccc(Cl)cc4Cl)cccc3C2=O)C(=O)N1 (centres unmarked) [Compound 28, 2,4-dichloro-N-((2-(2,6-dioxopiperidin-3-yl)-1-oxoisoindolin-4-yl)methyl)benzamide]		> 10000
O=C1CCC(N2Cc3c(CNC(=O)c4cccc5cc[nH]c45)cccc3C2=O)C(=O)N1 (centres unmarked) [Compound 38, N-((2-(2,6-dioxopiperidin-3-yl)-1-oxoisoindolin-4-yl)methyl)-1H-indole-7-carboxamide]	< 1000	< 1000
O=C1CCC(N2Cc3c(CNC(=O)c4cccs4)cccc3C2=O)C(=O)N1 (centres unmarked) [Compound 27, N-((2-(2,6-dioxopiperidin-3-yl)-1-oxoisoindolin-4-yl)methyl)thiophene-2-carboxamide]	< 1000	> 10000
Cc1ccc(C(=O)NCc2cccc3c2CN(C2CCC(=O)NC2=O)C3=O)cc1 (centres unmarked) [Compound 11, N-((2-(2,6-dioxopiperidin-3-yl)-1-oxoisoindolin-4-yl)methyl)-4-methylbenzamide]		1000 to 10000
O=C1CCC(N2Cc3c(CNC(=O)c4cccnc4)cccc3C2=O)C(=O)N1 (centres unmarked) [Compound 8, N-((2-(2,6-dioxopiperidin-3-yl)-1-oxoisoindolin-4-yl)methyl)nicotinamide]		> 10000
O=C1CCC(N2Cc3c(CNC(=O)c4ccc(Cl)c(C(F)(F)F)c4)cccc3C2=O)C(=O)N1 (centres unmarked) [Compound 21, 4-chloro-N-((2-(2,6-dioxopiperidin-3-yl)-1-oxoisoindolin-4-yl)methyl)-3-(trifluoromethyl)benzamide]		< 1000
O=C1CCC(N2Cc3c(CNC(=O)c4ccc(Cl)c(Cl)c4)cccc3C2=O)C(=O)N1 (centres unmarked) [Compound 14, 3,4-dichloro-N-((2-(2,6-dioxopiperidin-3-yl)-1-oxoisoindolin-4-yl)methyl)benzamide]		< 1000
O=C1CCC(N2Cc3c(CNC(=O)c4ccc(Br)cc4)cccc3C2=O)C(=O)N1 (centres unmarked) [Compound 18, 4-bromo-N-((2-(2,6-dioxopiperidin-3-yl)-1-oxoisoindolin-4-yl)methyl)benzamide]		< 1000
O=C1CCC(N2Cc3c(CNC(=O)c4ccco4)cccc3C2=O)C(=O)N1 (centres unmarked) [Compound 2, N-((2-(2,6-dioxopiperidin-3-yl)-1-oxoisoindolin-4-yl)methyl)furan-2-carboxamide]		> 10000
O=C1CCC(N2Cc3c(CNC(=O)c4ccccc4)cccc3C2=O)C(=O)N1 (centres unmarked) [Compound 10, N-((2-(2,6-dioxopiperidin-3-yl)-1-oxoisoindolin-4-yl)methyl)benzamide]		1000 to 10000
